Laboratory results taken from patent US6525001B1, “Substituted pyrimidine and pyridine herbicides” (Mid-American Commercialization Corporation, priority 1997, dated 2003).

Test system: barnyardgrass (Echinochloa crus-galli)
Test: Test E pre-/postemergence/post directed
Format: in vivo
Parameters: key: 0 is no effect; 100 is complete control
Conditions: PREEMERGENCE
In short: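 Greenhouse pot-grown plants; compound in non-phytotoxic solvent with surfactant applied preemergence to soil within one day of planting, postemergence at two to four leaf stage (three to twenty cm), or post-directed to plant base and soil. Visual injury rated 13 to 21 days after application, 0 (none) to 100 (complete control).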

Cc1cnc(-n2ccc(C(F)(F)F)n2)nc1Cc1cccc(C(F)(F)F)c1 [Example 2, 5-methyl-4-[[3-(trifluoromethyl)phenyl]methyl]-2-[3-(trifluoromethyl)-1H-pyrazol-1-yl]pyrimidine]
Plant response rating, Barnyardgrass (Rate 125 g/ha): 100
Plant response rating, Barnyardgrass (Rate 250 g/ha): 100
